Measurements: patent US20070128217A1 (priority 2003, published 2007)

Experiments:
[1] = test system: control sera (pooled serum of ten healthy LUMC hospital workers; commercial negative donor pooled serum from the Dutch bloodbank); format: binding, human; design: Binding of Control serum LUMC to linear peptides / Binding of Control serum Blood-bank to linear peptides / Binding of Control serum LUMC to looped peptides / Binding of Control Serum Blood-Bank to Looped peptides / Binding of Control serum LUMC to linear peptides of the protein M of SARS-CoV Urbani / Binding of Control serum Blood-bank to linear peptides of the protein M of SARS-CoV Urbani / Binding of Control serum LUMC to looped peptides of the protein M of SARS-CoV Urbani / Binding of Control Serum Blood-Bank to Looped peptides of the protein M of SARS-CoV Urbani: unit not given here
[2] = test system: rabbit serum obtained by immunizing a rabbit with the SARS-CoV strain Frankfurt 1; format: binding; design: Binding of a rabbit serum to linear peptides / Binding of a rabbit serum to looped peptides / Rabbit serum linear peptides / Rabbit serum looped peptides / Binding of a rabbit serum to linear peptides of protein N of SARS-CoV Urbani (Rabbit serum linear peptides) / Binding of a rabbit serum to looped/cyclic peptides of protein N of SARS-CoV Urbani (Rabbit serum looped peptides): unit not given here

MAGHPLGRCDIKDLP
Binding of Control Serum Blood-Bank to Looped peptides of the protein M of SARS-CoV Urbani [1]: 0.5 | Binding of Control serum Blood-bank to linear peptides of the protein M of SARS-CoV Urbani [1]: 0.7 | Binding of Control serum LUMC to linear peptides of the protein M of SARS-CoV Urbani [1]: 0.5 | Binding of Control serum LUMC to looped peptides of the protein M of SARS-CoV Urbani [1]: 0.5 | Rabbit serum linear peptides [2]: 0.4 | Rabbit serum looped peptides [2]: 0.3

MRTFRIAIWNLDVII
Binding of Control Serum Blood-Bank to Looped peptides of the protein X3 of SARS-CoV Urbani [1]: 0.8 | Binding of Control serum Blood-bank to linear peptides of the protein X3 of SARS-CoV Urbani [1]: 0.7 | Binding of Control serum LUMC to linear peptides of the protein X3 of SARS-CoV Urbani [1]: 0.6 | Binding of Control serum LUMC to looped peptides of the protein X3 of SARS-CoV Urbani [1]: 0.8 | Rabbit serum linear peptides [2]: 0.3 | Rabbit serum looped peptides [2]: 0.4

NCQDPAGGALIARCW
Binding of Control Serum Blood-Bank to Looped peptides [1]: 0.8 | Binding of Control serum Blood-bank to linear peptides [1]: 0.6 | Binding of Control serum LUMC to linear peptides [1]: 0.3 | Binding of Control serum LUMC to looped peptides [1]: 0.6 | Rabbit serum linear peptides [2]: 0.5 | Rabbit serum looped peptides [2]: 0.5

NIVNVSLVKPTVYVY
Binding of Control Serum Blood-Bank to Looped peptides [1]: 0.6 | Binding of Control serum Blood-bank to linear peptides [1]: 0.6 | Binding of Control serum LUMC to linear peptides [1]: 0.4 | Binding of Control serum LUMC to looped peptides [1]: 0.8 | Binding of a rabbit serum to linear peptides [2]: 0.5 | Binding of a rabbit serum to looped peptides [2]: 0.6

NKLVKDPPNVQIHTI
Binding of Control Serum Blood-Bank to Looped peptides [1]: 0.8 | Binding of Control serum Blood-bank to linear peptides [1]: 1.0 | Binding of Control serum LUMC to linear peptides [1]: 0.9 | Binding of Control serum LUMC to looped peptides [1]: 0.9 | Binding of a rabbit serum to linear peptides [2]: 0.1 | Binding of a rabbit serum to looped peptides [2]: 0.6

NPAMDPIYDEPTTTT
Binding of Control Serum Blood-Bank to Looped peptides [1]: 0.4 | Binding of Control serum Blood-bank to linear peptides [1]: 0.4 | Binding of Control serum LUMC to linear peptides [1]: 0.3 | Binding of Control serum LUMC to looped peptides [1]: 0.4 | Binding of a rabbit serum to linear peptides [2]: 0.1 | Binding of a rabbit serum to looped peptides [2]: 0.3

NTDHAGSNDNIALLV
Binding of Control Serum Blood-Bank to Looped peptides of the protein M of SARS-CoV Urbani [1]: 1.0 | Binding of Control serum Blood-bank to linear peptides of the protein M of SARS-CoV Urbani [1]: 0.8 | Binding of Control serum LUMC to linear peptides of the protein M of SARS-CoV Urbani [1]: 0.5 | Binding of Control serum LUMC to looped peptides of the protein M of SARS-CoV Urbani [1]: 0.9 | Rabbit serum linear peptides [2]: 0.4 | Rabbit serum looped peptides [2]: 0.4

NVTINCQDPAGGALI
Binding of Control Serum Blood-Bank to Looped peptides [1]: 0.7 | Binding of Control serum Blood-bank to linear peptides [1]: 0.8 | Binding of Control serum LUMC to linear peptides [1]: 0.6 | Binding of Control serum LUMC to looped peptides [1]: 0.7 | Rabbit serum linear peptides [2]: 0.6 | Rabbit serum looped peptides [2]: 0.5

NWVTGGIAIAMACIV
Binding of Control Serum Blood-Bank to Looped peptides of the protein M of SARS-CoV Urbani [1]: 0.6 | Binding of Control serum Blood-bank to linear peptides of the protein M of SARS-CoV Urbani [1]: 0.7 | Binding of Control serum LUMC to linear peptides of the protein M of SARS-CoV Urbani [1]: 0.8 | Binding of Control serum LUMC to looped peptides of the protein M of SARS-CoV Urbani [1]: 0.9 | Rabbit serum linear peptides [2]: 0.2 | Rabbit serum looped peptides [2]: 0.3

NYDYCIPYNSVTDTI
Binding of Control Serum Blood-Bank to Looped peptides [1]: 0.6 | Binding of Control serum Blood-bank to linear peptides [1]: 0.6 | Binding of Control serum LUMC to linear peptides [1]: 0.6 | Binding of Control serum LUMC to looped peptides [1]: 0.7 | Binding of a rabbit serum to linear peptides [2]: 0.1 | Binding of a rabbit serum to looped peptides [2]: 0.5

NYFVCWHTHNYDYCI
Binding of Control Serum Blood-Bank to Looped peptides [1]: 0.6 | Binding of Control serum Blood-bank to linear peptides [1]: 0.6 | Binding of Control serum LUMC to linear peptides [1]: 0.6 | Binding of Control serum LUMC to looped peptides [1]: 0.6 | Binding of a rabbit serum to linear peptides [2]: 0.1 | Binding of a rabbit serum to looped peptides [2]: 0.5

PAMDPIYDEPTTTTS
Binding of Control Serum Blood-Bank to Looped peptides [1]: 0.5 | Binding of Control serum Blood-bank to linear peptides [1]: 0.4 | Binding of Control serum LUMC to linear peptides [1]: 0.4 | Binding of Control serum LUMC to looped peptides [1]: 0.4 | Binding of a rabbit serum to linear peptides [2]: 0.1 | Binding of a rabbit serum to looped peptides [2]: 0.4

PKLKEDYQIGGYSED
Binding of Control Serum Blood-Bank to Looped peptides [1]: 0.5 | Binding of Control serum Blood-bank to linear peptides [1]: 0.4 | Binding of Control serum LUMC to linear peptides [1]: 0.4 | Binding of Control serum LUMC to looped peptides [1]: 0.7 | Binding of a rabbit serum to linear peptides [2]: 0.1 | Binding of a rabbit serum to looped peptides [2]: 0.6

PLGRCDIKDLPKEIT
Binding of Control Serum Blood-Bank to Looped peptides of the protein M of SARS-CoV Urbani [1]: 0.9 | Binding of Control serum Blood-bank to linear peptides of the protein M of SARS-CoV Urbani [1]: 0.6 | Binding of Control serum LUMC to linear peptides of the protein M of SARS-CoV Urbani [1]: 0.4 | Binding of Control serum LUMC to looped peptides of the protein M of SARS-CoV Urbani [1]: 0.8 | Rabbit serum linear peptides [2]: 0.3 | Rabbit serum looped peptides [2]: 0.4

PNVTINCQDPAGGAL
Binding of Control Serum Blood-Bank to Looped peptides [1]: 0.4 | Binding of Control serum Blood-bank to linear peptides [1]: 1.0 | Binding of Control serum LUMC to linear peptides [1]: 0.7 | Binding of Control serum LUMC to looped peptides [1]: 0.4 | Rabbit serum linear peptides [2]: 0.6 | Rabbit serum looped peptides [2]: 0.2

PVKIDNASPASTVHA
Binding of Control Serum Blood-Bank to Looped peptides [1]: 0.7 | Binding of Control serum Blood-bank to linear peptides [1]: 0.7 | Binding of Control serum LUMC to linear peptides [1]: 0.5 | Binding of Control serum LUMC to looped peptides [1]: 0.9 | Binding of a rabbit serum to linear peptides [2]: 0.1 | Binding of a rabbit serum to looped peptides [2]: 0.4

QECVRGTTVLLKEPC
Binding of Control Serum Blood-Bank to Looped peptides [1]: 0.9 | Binding of Control serum Blood-bank to linear peptides [1]: 0.9 | Binding of Control serum LUMC to linear peptides [1]: 1.0 | Binding of Control serum LUMC to looped peptides [1]: 0.8 | Rabbit serum linear peptides [2]: 0.6 | Rabbit serum looped peptides [2]: 0.5

QHQNSKKTTKLVVIL
Binding of Control Serum Blood-Bank to Looped peptides [1]: 0.6 | Binding of Control serum Blood-bank to linear peptides [1]: 0.5 | Binding of Control serum LUMC to linear peptides [1]: 0.6 | Binding of Control serum LUMC to looped peptides [1]: 0.5 | Recognition of the peptide by the rabbit serum [2]: recognized

QLFKPLTKKNYSELD
Binding of Control Serum Blood-Bank to Looped peptides of the protein X3 of SARS-CoV Urbani [1]: 0.8 | Binding of Control serum Blood-bank to linear peptides of the protein X3 of SARS-CoV Urbani [1]: 0.8 | Binding of Control serum LUMC to linear peptides of the protein X3 of SARS-CoV Urbani [1]: 0.8 | Binding of Control serum LUMC to looped peptides of the protein X3 of SARS-CoV Urbani [1]: 0.8 | Rabbit serum linear peptides [2]: 0.3 | Rabbit serum looped peptides [2]: 0.3

QNSKKTTKLVVILRI
Binding of Control Serum Blood-Bank to Looped peptides [1]: 0.7 | Binding of Control serum Blood-bank to linear peptides [1]: 0.5 | Binding of Control serum LUMC to linear peptides [1]: 0.8 | Binding of Control serum LUMC to looped peptides [1]: 0.7 | Recognition of the peptide by the rabbit serum [2]: recognized

QPVKIDNASPASTVH
Binding of Control Serum Blood-Bank to Looped peptides [1]: 0.6 | Binding of Control serum Blood-bank to linear peptides [1]: 0.6 | Binding of Control serum LUMC to linear peptides [1]: 0.6 | Binding of Control serum LUMC to looped peptides [1]: 0.6 | Binding of a rabbit serum to linear peptides [2]: 0.1 | Binding of a rabbit serum to looped peptides [2]: 0.4

RFFTLGSITAQPVKI
Binding of Control Serum Blood-Bank to Looped peptides [1]: 0.8 | Binding of Control serum Blood-bank to linear peptides [1]: 1.0 | Binding of Control serum LUMC to linear peptides [1]: 1.1 | Binding of Control serum LUMC to looped peptides [1]: 0.7 | Binding of a rabbit serum to linear peptides [2]: 1.7 | Binding of a rabbit serum to looped peptides [2]: 0.5

RGTTVLLKEPCPSGT
Binding of Control Serum Blood-Bank to Looped peptides [1]: 0.9 | Binding of Control serum Blood-bank to linear peptides [1]: 0.9 | Binding of Control serum LUMC to linear peptides [1]: 0.8 | Binding of Control serum LUMC to looped peptides [1]: 0.8 | Rabbit serum linear peptides [2]: 0.4 | Rabbit serum looped peptides [2]: 0.5

RMAGHPLGRCDIKDL
Binding of Control Serum Blood-Bank to Looped peptides of the protein M of SARS-CoV Urbani [1]: 0.9 | Binding of Control serum Blood-bank to linear peptides of the protein M of SARS-CoV Urbani [1]: 0.7 | Binding of Control serum LUMC to linear peptides of the protein M of SARS-CoV Urbani [1]: 0.7 | Binding of Control serum LUMC to looped peptides of the protein M of SARS-CoV Urbani [1]: 0.8 | Rabbit serum linear peptides [2]: 0.1 | Rabbit serum looped peptides [2]: 0.6
